Data as given in patent publication US20080076772A1, “Anti-Inflammatory Agents” (Pharma Mar S.A. Sociedad Unipersonal, priority 2004, published 2008).

Legend:
[1] = test system: macrophage differentiation; test: In vitro macrophage differentiation of monocytes with M-CSF (phenotype analysis); assay type: cell-based, human; settings: 1 nM, 5 days with M-CSF 20 ng/ml
Protocol: (§1) Expression of cell membrane markers was performed by immunofluoresce and analyzed by Flow Cytometry. Cells were incubated with anti-CD14, anti-CD16, anti-CD68, anti-CD206 (mannose receptor) and then with FITC-goat anti-mouse Ig as described. At least 10,000 cells were analyzed.
In order to study the effect of ecteinascidin 743 on macrophage differentiation, non cytotoxic doses of the drug were used. Monocytes were cultured with M-CSF (20 ng/ml) and with sub-cytotoxic concentrations of ecteinascidin 743 for 5 days. Phenotype analysis was performed by indirect immunofluorescence and analyzed in Flow Cytometry by gating on large cells. Usually, an average of 65±15% (mean±SD of>10 experiments) of input monocytes differentiate into large cells expressing typical macrophage markers, including CD16, CD68 and CD206 (mannose receptor). After 5 days of culture monocyte viability, evaluated by propidium iodide staining in flow cytometry, was 92% and 70% of untreated cells at 0.5 and 1 nM ecteinascidin 743, respectively.

[2] = test system: macrophage differentiation; test: In vivo treatment of tumour patients, in vitro differentiation of their monocytes to macrophages; set-up: species or system human; % inhibition of macrophage differentiation referred to cells before infusion: concentration or dose not given beside the values; settings: for Absolute numbers of marker positive macrophages/10,000 cells, Exposure to ecteinascidin 743: end of 3-h infusion, 5 days M-CSF
Protocol: as §1
Patients with sarcoma or ovarian cancer undergoing Phase II trial with ecteinascidin 743, were admitted to the European Oncology institute, Milano, Italy. Patients received ecteinascidin 743 ([…]) in a 3-h infusion. Blood samples (40 ml) were collected immediately before the treatment and at the end of the infusion (+3 h). Blood samples were immediately processed and Percoll purified monocytes (usually 10^6 cells) were cultured with M-CSF (20 ng/ml) for 5 days. Differentiated cells were harvested, counted and analyzed for phenotype expression, as described above. Results are presented as absolute numbers of marker-positive cells/10,000 cells.
To validate the above in vitro findings we tested whether the in vivo administration of ecteinascidin 743 in tumour patients could have measurable effects on monocyte viability and capacity to macrophage differentiation in vitro. A phase II trial with ecteinascidin 743 is currently underway in advanced ovarian adenocarcinoma patients who had failed two different cycles of conventional cis-platin and taxol-based chemotherapy. Tumour patients selected for this study were treated with 1300 ug/ml/m2 of ecteinascidin 743. Blood samples from patients were drawn just before drug administration and at the end of a 3-hour infusion. Purified monocytes were immediately isolated and cultured with M-CSF (20 ng/ml) for 5 days to induce macrophage differentiation and then analalyzed for phenotype expression. […] The data shown are the absolute numbers of marker positive cells for a total of 10,000 input cells.

[3] = test system: Tumour-Associated Macrophages (TAM); test: Cell viability of Tumour-Associated Macrophages from ovarian cancer ascites; assay type: cell-based; settings: Homo sapiens, Macrophage; 10 nM, 48 h, three patients
Source text: Tumour-associated macrophages (TAM) and tumour cells were isolated from the ascitic fluid of patients with diagnosed ovarian adenocarcinoma, admitted to the Clinic of Obstetrics and Gynecology of the University of Milan-Bicocca, S Gerardo Hospital. Cells contained in the ascitic fluid were centrifuged and isolated by differential density gradients of Ficoll and Percoll, and plastic adherence as previously described (see Allavena, P., Peccatori, F., Maggioni, D., Erroi, A., Sironi, M., Colombo, N., Lissoni, A., Galazka, A., Meiers, W., Mangioni, C., et al. Intraperitoneal recombinant gamma-interferon in patients with recurrent ascitic ovarian carcinoma: modulation of cytotoxicity and cytokine production in tumour-associated effectors and of major histocompatibility antigen expression on tumour cells. Cancer Res, 50: 7318-7323, 1990). Purity of TAM and tumour cell preparations was usually>65±10% as defined by morphology and phenotype analysis. Cells were treated with ecteinascidin 743 at the indicated concentrations and cultured for 1-5 days, as specified in figure legends. At the end of the incubation period cells were collected, washed and used for DNA analysis or functional assays.
Apoptosis was detected by staining with AnnexinV and PI.
We also tested Tumour-Associated Macrophages (TAM) isolated from the ascites of non-treated ovarian adenocarcinoma patients. […]

## COc1cc2c(cc1O)CCN[C@]21CS[C@@H]2c3c(OC(C)=O)c(C)c4c(c3[C@H](COC1=O)N1[C@@H]2[C@H]2c3c(cc(C)c(OC)c3O)C[C@@H]([C@@H]1O)N2C)OCO4 [ecteinascidin 743]
[1]
  de novo expression of CD68, CD16 and CD206: reduced
[2]; of 12 evaluable patients, blood at end of 3-hour infusion
  subjects whose monocytes showed decreased macrophage differentiation after treatment: 6
[2]; patient UPN 1, CD16
  % inhibition of macrophage differentiation referred to cells before infusion: 60%
  Absolute numbers of marker positive macrophages/10,000 cells, Exposure to ecteinascidin 743: 1248 /10,000 cells
[2]; patient UPN 1, CD68
  % inhibition of macrophage differentiation referred to cells before infusion: 45%
  Absolute numbers of marker positive macrophages/10,000 cells, Exposure to ecteinascidin 743: 1473 /10,000 cells
[2]; patient UPN 1, CD206
  % inhibition of macrophage differentiation referred to cells before infusion: 88%
  Absolute numbers of marker positive macrophages/10,000 cells, Exposure to ecteinascidin 743: 550 /10,000 cells
[2]; patient UPN 2, CD16
  % inhibition of macrophage differentiation referred to cells before infusion: 60%
  Absolute numbers of marker positive macrophages/10,000 cells, Exposure to ecteinascidin 743: 1105 /10,000 cells
[2]; patient UPN 2, CD68
  % inhibition of macrophage differentiation referred to cells before infusion: 70%
  Absolute numbers of marker positive macrophages/10,000 cells, Exposure to ecteinascidin 743: 1060 /10,000 cells
[2]; patient UPN 2, CD206
  % inhibition of macrophage differentiation referred to cells before infusion: 79%
  Absolute numbers of marker positive macrophages/10,000 cells, Exposure to ecteinascidin 743: 595 /10,000 cells
[2]; patient UPN 3, CD68
  % inhibition of macrophage differentiation referred to cells before infusion: 80%
  Absolute numbers of marker positive macrophages/10,000 cells, Exposure to ecteinascidin 743: 632 /10,000 cells
[2]; patient UPN 3, CD206
  % inhibition of macrophage differentiation referred to cells before infusion: 87%
  Absolute numbers of marker positive macrophages/10,000 cells, Exposure to ecteinascidin 743: 474 /10,000 cells
[2]; patient UPN 4, CD16
  % inhibition of macrophage differentiation referred to cells before infusion: 41%
  Absolute numbers of marker positive macrophages/10,000 cells, Exposure to ecteinascidin 743: 3050 /10,000 cells
[2]; patient UPN 4, CD68
  % inhibition of macrophage differentiation referred to cells before infusion: 55%
  Absolute numbers of marker positive macrophages/10,000 cells, Exposure to ecteinascidin 743: 2460 /10,000 cells
[2]; patient UPN 5, CD16
  % inhibition of macrophage differentiation referred to cells before infusion: 63%
  Absolute numbers of marker positive macrophages/10,000 cells, Exposure to ecteinascidin 743: 594 /10,000 cells
[2]; patient UPN 5, CD68
  % inhibition of macrophage differentiation referred to cells before infusion: 50%
  Absolute numbers of marker positive macrophages/10,000 cells, Exposure to ecteinascidin 743: 815 /10,000 cells
[2]; patient UPN 6, CD16
  % inhibition of macrophage differentiation referred to cells before infusion: 83%
  Absolute numbers of marker positive macrophages/10,000 cells, Exposure to ecteinascidin 743: 480 /10,000 cells
[2]; patient UPN 6, CD68
  % inhibition of macrophage differentiation referred to cells before infusion: 79%
  Absolute numbers of marker positive macrophages/10,000 cells, Exposure to ecteinascidin 743: 505 /10,000 cells
[3]
  mortality at 0.01 µM: 40 to 70%
